Measurements: PMC11510591, “In Vitro Evaluation of Pharmacokinetic Properties of Selected Dual COX-2 and 5-LOX Inhibitors” (Pharmaceuticals, 2024)
Values after ≈ are worked out from the molar mass of the structure shown. Values joined by “and” are separate entries in the source; they are usually repeats but may differ in a detail not shown here. Identical values can stand only once. Marks after values point to notes of the source that are not given here.

How the values were obtained:
[1] = Stability in acidic medium (0.01 M HCl); format: physicochemical; conditions: for The Decrease in Peak Area (%): 0.01 M HCl pH 2, 2 h; for Peak Area, t: 0.01 M HCl pH 2, after 2 h; for Peak Area, t0: 0.01 M HCl pH 2, start of incubation
Experimental: In order to test gastric stability, compounds were incubated in 0.01 M HCl (pH = 2) for 2 h. Moreover, 0.01 M HCl was chosen because this acid is naturally present in the stomach and simulates its pH (between 1 and 3), while incubation time (2 h) corresponds to the average retention of drugs in the stomach after an oral administration. Peak areas at the beginning (t0) and at the end of the incubation (t) and the decrease in peak areas between these two time points are presented in Table 5.
Acidic medium was simulated by a 0.01 M HCl solution, which was prepared by diluting 0.1 M HCl with distilled water. Stock solutions of tested compounds (5 mM DMSO solutions) were diluted with the medium to obtain a concentration of 0.05 mM. Tested compounds were investigated immediately after preparation (t0) and after a defined incubation time (t) by injecting these solutions into the HPLC chromatograph in duplicates (the HPLC method used was the same as described in Section 3.3.1). The difference between peak areas at t0 and t time points and the eventual occurrence of additional chromatographic peaks after incubation were analyzed.

[2] = target: T1, human serum albumin (HSA) (Homo sapiens, UniProt P02768); assay: Differential pulse voltammetry (DPV), interaction with HSA; format: binding; conditions: compound 0.05 mmol/L, PBS pH 7.4, HSA 0.05–10 μmol/L; for fraction unbound at 0.05 mmol/L: human, human serum albumin solution in PBS, read-out: % Bound Drug (converted)
T1 construct: purchased Sigma-Aldrich
T1 sequence (P02768 25-609): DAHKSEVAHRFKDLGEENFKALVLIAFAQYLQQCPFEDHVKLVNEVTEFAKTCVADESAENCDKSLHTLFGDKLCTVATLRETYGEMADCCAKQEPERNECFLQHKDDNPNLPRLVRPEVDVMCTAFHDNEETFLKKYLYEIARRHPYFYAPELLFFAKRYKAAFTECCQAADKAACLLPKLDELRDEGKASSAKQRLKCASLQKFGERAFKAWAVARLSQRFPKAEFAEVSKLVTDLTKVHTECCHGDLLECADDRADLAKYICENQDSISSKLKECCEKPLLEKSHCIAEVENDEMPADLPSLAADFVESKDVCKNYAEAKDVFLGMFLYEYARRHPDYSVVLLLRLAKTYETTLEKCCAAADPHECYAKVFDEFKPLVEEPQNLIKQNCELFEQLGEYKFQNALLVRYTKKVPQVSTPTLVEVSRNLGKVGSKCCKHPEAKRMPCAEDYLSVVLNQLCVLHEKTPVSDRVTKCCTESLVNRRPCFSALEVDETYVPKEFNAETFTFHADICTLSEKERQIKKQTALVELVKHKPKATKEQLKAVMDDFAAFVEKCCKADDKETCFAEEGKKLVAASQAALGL
Experimental: The electrochemical oxidation of the tested compounds at a concentration of 0.05 mmol/L in PBS buffer pH 7.4 was investigated by differential pulse voltammetry (DPV). […] For all tested compounds, a preliminary study of the interaction with HSA was performed at a concentration of 0.05 mmol/L and different HSA concentrations (0.05–10 μmol/L) using DPV. […] It has been reported that the shift in the potential of an electroactive ligand is a suitable criterion to determine the mode of the macromolecule–ligand interaction. In this context, a positive shift in potential is an indication of hydrophobic interaction of investigated compounds with HSA [34]. The decrease in peak current could be due to the formation of a non-electroactive supramolecular compound by the drug–protein interaction, which reduces the concentration of free drug.
The voltammetric measurements were carried out with the µAutolab analyzer (EcoChemie, Utrecht, The Netherlands). A three-electrode system with a GCE working electrode, an Ag/AgCl reference electrode, and a Pt-auxiliary electrode was used. Before each experiment, the GCE was manually polished with an aqueous slurry of Al2O3 powder (particle size of 0.05 μm) on a smooth polishing pad, sonicated in deionized water, and then treated in absolute ethanol. Phosphate buffer saline (PBS) pH 7.4 was used as the supporting electrolyte. The experiments were carried out with deaerated PBS buffer. A stock solution of HSA in PBS at a concentration of 0.1 mmol/L was used. […] The interaction between tested compounds and HSA was examined in PBS solution, using solutions of tested compounds in a concentration of 0.05 mmol/L and HSA solution with a concentration in the range of 0.05–10 μmol/L.
The percentage of free compound (Equation (4)) was calculated from the ratio of the current intensity (IINT) for a given compound concentration (0.05 mmol/L) in the presence of albumin to the signal obtained at the same compound concentration only in the presence of the supporting electrolyte (PBS buffer) (IC).

[3] = system: CD-1 mouse liver microsomes; conditions: pH 7.4; for Peak Area, t0: 0 min
Experimental: Microsomal stability (and thus susceptibility to metabolism) was tested using microsomes derived from CD-1 mouse liver. According to the applied protocol, both phases of metabolism were activated by the addition of cofactors NADPH and UDP-GlcUA. […] Stock solutions of all tested compounds (5 mM DMSO solutions) were diluted with 0.1 M potassium phosphate buffer pH 7.4 to obtain 0.1 mM solutions, which were further incubated according to the protocol. In order to activate both the 1st and 2nd phases of metabolism, NADPH and UDP-GlcUA were used as cofactors. Tested compounds were incubated at 37 °C for 30 min, and the incubation was quenched immediately after the addition of cofactors (t0) and after the defined incubation time (t) by mixing 100 µL of corresponding incubation mixtures with 200 µL of cold acetonitrile. All compounds were tested in duplicates, and their concentrations were determined using the HPLC-MS/MS method (Section 3.7.1).
The HPLC-MS/MS analysis was performed on the UHPLC chromatograph ACELLA (Thermo Fisher Scientific Inc., Madison, WI, USA), coupled to a triple quadrupole mass spectrometer TSQ Quantum Access MAX (Thermo Fisher Scientific Inc., Madison, WI, USA) with a heated electrospray ionization (HESI) interface. The column used was Zorbax Extend C18 (150 mm × 4.6 mm, 5 µm; Agilent Technologies), which was thermostated at 25 °C. The mobile phase consisted of acetonitrile and 0.1% formic acid (60:40, v/v), with a flow rate of 500 µL/min. The injection volume was 10 µL.

Solubility in water = format: physicochemical; conditions: distilled water, thermodynamic from solid, room temperature
Experimental: As discussed in the previous section, all tested compounds are dominantly unionized in the whole range of physiologically important pH values (2 < pH ≤ 7.4). Therefore, water was used for the determination of solubility. […] According to USP34, all tested compounds can be defined as practically insoluble since their solubilities are ≤100 mg/L [54].
Solubility of tested compounds was investigated at room temperature. Compounds were weighed on a scale (5 mg each) and transferred to flasks. In a stepwise procedure, increasing volumes of distilled water were added, and after each addition of an amount of water, the mixture was placed on an ultrasound bath for 5 min and visually inspected for undissolved parts of the sample. When no […] could be observed, the mixture was transferred into a glass cylinder, and opalescence was compared with water. If the mixture was not more opalescent than the solvent, the solvation was considered to be achieved. Solubility of a compound is defined according to the amount of solvent required to dissolve 1 mg.

| SMILES | The Decrease in Peak Area (%) [1] | Peak Area, t [1] | Peak Area, t0 [1] | ΔE, DPV peak potential shift after interaction with HSA [2] [mV] | fraction unbound at 0.05 mmol/L [2] | Peak Area, t0 [3] | Peak Area, t ([3]; 30 min) | solubility at 5 min (Solubility in water) [µg/mL] | The Decrease in Peak Area (%) ([3]; 30 min) |
| --- | --- | --- | --- | --- | --- | --- | --- | --- | --- |
| CC(=O)N(O)C(C)c1ccc(CC(C)C)cc1 (centres unmarked) [Compound 11] | 1.63 (p = 0.073) % | 10.83 ± 0.03 | 11.01 ± 0.02 | 7 | 0.292 | 60.0 ± 1.4 ×10^3 | 44.6 ± 1.9 ×10^3 | 19.4 (≈ 82.2 µM) |  |
| COc1ccc2c(c1)c(CNC(=O)NO)c(C)n2C(=O)c1ccc(Cl)cc1 [Compound 1] | 0.07 (p = 0.2839) ^a % | 8.27 ± 0.00 | 8.28 ± 0.01 | 34 | 0.267 | 131.5 ± 16.8 ×10^3 | 60.5 ± 6.4 ×10^3 | 1.5 (≈ 3.87 µM) |  |
| COc1ccc2cc(C(C)N(O)C(C)=O)ccc2c1 (centres unmarked) [Compound 12] | 0.24 (p = 0.4399) % | 48.54 ± 0.39 | 48.66 ± 0.49 | 13 | 0.296 | 43.9 ± 3.2 ×10^3 | 18.2 ± 0.1 ×10^3 | 11.8 (≈ 45.4 µM) |  |
| O=C(NO)NCc1ccccc1Nc1c(Cl)cccc1Cl [Compound 3] | 2.33% and 2.33 (p = 0.0159) % | 6.27 ± 0.10 | 6.42 ± 0.11 | 29 | 0.198 | 1033.6 ± 42.5 ×10^3 | 455.5 ± 8.9 ×10^3 | 5.45 (≈ 16.7 µM) |  |
| CC(NC(=O)NO)c1ccc(-c2ccccc2)c(F)c1 (centres unmarked) [Compound 2] | 0.34 (p = 0.4501) % | 6.55 ± 0.07 | 6.57 ± 0.12 | 30 | 0.198 | 16.5 ± 3.1 ×10^3 | 9.6 ± 3.0 ×10^3 | 14.3 (≈ 52.1 µM) | 41.65 (p = 0.0034) % |
